Test [1] concerns the target T1, human soluble TNFR1 (sTNFR1) (Homo sapiens, UniProt P19438).
T1 construct: made in house; host or cells: Sf21 (baculovirus)
T1 sequence (P19438 with tags, fused parts or gaps): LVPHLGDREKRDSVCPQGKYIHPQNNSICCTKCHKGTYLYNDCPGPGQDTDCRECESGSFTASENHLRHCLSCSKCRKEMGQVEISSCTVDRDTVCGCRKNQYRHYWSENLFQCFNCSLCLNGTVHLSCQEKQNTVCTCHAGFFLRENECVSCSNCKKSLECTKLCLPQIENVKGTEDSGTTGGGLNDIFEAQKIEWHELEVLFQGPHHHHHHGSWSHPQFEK
In words: Human sTNFR1-peptide displacement assay (LanthaScreen Eu TR-FRET binding assay). The method in brief:
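Readout is the 665/615 nm TR-FRET ratio (Eu anti-His donor, streptavidin-Alexa647 acceptor), normalized to DMSO and saturating displacer, fit by Morrison-based five-parameter logistic for Kd^app. His-tagged sTNFR1 (1-211) prebound to 100 nM biotinylated peptide SEQ ID NO.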
A general note: In TR-FRET formats the signal depends on donor and acceptor labels being close together.

The target in test [2] is T2, human TNFR1 extracellular domain (ECD) protein (Homo sapiens, UniProt P19438).
T2 construct: HRV 3C protease cleavage site (C); 6His (C, cleaved yes); made in house; host or cells: Sf21 insect cells (baculovirus), secreted
T2 sequence (P19438 30-211): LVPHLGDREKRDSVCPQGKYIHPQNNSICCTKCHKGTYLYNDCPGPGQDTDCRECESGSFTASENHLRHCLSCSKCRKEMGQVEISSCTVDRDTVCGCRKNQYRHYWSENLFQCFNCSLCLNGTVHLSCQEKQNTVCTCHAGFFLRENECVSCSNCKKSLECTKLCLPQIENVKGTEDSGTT
Briefly: SPR binding affinity to captured human TNFR1 ECD. The method in brief:
(§1)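 Biotinylated avi-tagged human TNFR1 or TNFR2 ECD, expressed in Sf21 insect cells, captured on streptavidin SPR chip; peptide analytes run in 10 mM HEPES pH 7.4, 150 mM NaCl, 3 mM EDTA, 0.05% P20, 2% DMSO. kon and koff measured, affinity KA calculated.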
Background: Surface plasmon resonance follows binding to a sensor surface in real time, without labels.

For another test, the target named is T3, human TNFR2 ECD protein (Homo sapiens, UniProt P20333).
T3 construct: HRV 3C protease cleavage site (C); 6His (C, cleaved yes); made in house; host or cells: Sf21 insect cells (baculovirus), secreted
T3 sequence (P20333 23-257): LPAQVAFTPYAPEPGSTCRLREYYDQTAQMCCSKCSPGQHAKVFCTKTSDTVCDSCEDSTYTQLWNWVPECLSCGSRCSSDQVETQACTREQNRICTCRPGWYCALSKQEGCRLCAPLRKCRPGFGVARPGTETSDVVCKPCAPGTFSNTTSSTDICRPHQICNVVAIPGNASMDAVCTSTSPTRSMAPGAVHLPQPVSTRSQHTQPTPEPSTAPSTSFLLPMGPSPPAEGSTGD
Briefly: SPR off-target binding (selectivity) to human TNFR2 ECD. The method in brief:
as §1

Read-outs that look alike come from different tables or passages of the source. Numbered stars: 1 amine (or outer) side, 2 acyl side, 3 side chain; on linkers, the order of the positions; unused ones are H or OH. Square brackets hold non-standard residues; d marks the D form. Peptide text beside a SMILES is read from it. * marks the point of attachment. Trp(βS-Me,7-OMe) = COc1cccc2c([C@H](C)[C@H](N)C(=O)O)c[nH]c12; Ala(indazol-1-yl) = N[C@@H](Cn1ncc2ccccc21)C(=O)O; Trp(7-CN) = N#Cc1cccc2c(C[C@H](N)C(=O)O)c[nH]c12; Trp(7-Cl) = N[C@@H](Cc1c[nH]c2c(Cl)cccc12)C(=O)O; Phe(4-CONH2) = NC(=O)c1ccc(C[C@H](N)C(=O)O)cc1; Phe(4-COOH) = N[C@@H](Cc1ccc(C(=O)O)cc1)C(=O)O; 4Pal(3S-Me) = C[C@@H](c1ccncc1)[C@H](N)C(=O)O; Pip(5R-OH) = O=C(O)[C@@H]1CC[C@@H](O)CN1; X1 = O=C([C@@H]1CC[C@H](N[*:1])C1)[*:2]; Pip(4-aza) = O=C(O)[C@@H]1CNCCN1; 4Pal = N[C@@H](Cc1ccncc1)C(=O)O; Abu(4-CN) = N#CCC[C@H](N)C(=O)O; NMeE = CN[C@@H](CCC(=O)O)C(=O)O; dHyp = O=C(O)[C@H]1C[C@H](O)CN1; Ahp(2) = CCCCC[C@H](N)C(=O)O; αMeS = C[C@](N)(CO)C(=O)O; Carboxymethyl = O=C(O)C*; Nle = CCCC[C@H](N)C(=O)O; Sar = CNCC(=O)O

In the case of `CCCC[C@@H]1NC(=O)[C@@H]2CC[C@@H](C2)NC(=O)[C@H]([C@@H](C)c2c[nH]c3c(OC)cccc23)NC(=O)CN(C)C(=O)[C@H](Cc2ccc(O)cc2)NC(=O)[C@H](Cc2ccc(C(N)=O)cc2)NC(=O)[C@](C)(CO)NC(=O)[C@H](Cc2c[nH]c3c(Cl)cccc23)NC(=O)[C@H](Cc2ccncc2)NC(=O)[C@H](CC(N)=O)NC(=O)[C@H](CCC(=O)O)N(C)C(=O)[C@H](Cn2ncc3ccccc32)NC(=O)[C@@H]2CC[C@@H](O)CN2C(=O)[C@H](Cc2ccncc2)NC1=O` [SEQ ID NO. 74] (cyclo([4Pal][Trp(7-Cl)][αMeS][Phe(4-CONH2)]Y[Sar][Trp(βS-Me,7-OMe)][X1][Nle][4Pal][Pip(5R-OH)][Ala(indazol-1-yl)][NMeE]N)), the figures for the Kd (in test [1]; in test [2]; on human TNFR2 ECD protein) were 0.08 nM, 0.12 nM and > 1000 nM, respectively.

Consider `CCCCC[C@@H]1NC(=O)[C@@H]2CC[C@@H](C2)NC(=O)[C@H]([C@@H](C)c2c[nH]c3c(OC)cccc23)NC(=O)CN(C)C(=O)[C@H](Cc2ccc(C(N)=O)cc2)NC(=O)[C@H](Cc2ccc(C(N)=O)cc2)NC(=O)[C@](C)(CO)NC(=O)[C@H](Cc2c[nH]c3c(C#N)cccc23)NC(=O)[C@H](Cc2ccc(C(=O)O)cc2)NC(=O)[C@H](CC(N)=O)NC(=O)[C@H]2C[C@H](O)CN2C(=O)[C@H](Cc2c[nH]c3ccccc23)NC(=O)[C@H](CCC#N)NC(=O)[C@H]([C@@H](C)c2ccncc2)NC1=O` [SEQ ID NO. 79] (cyclo([Ahp(2)][4Pal(3S-Me)][Abu(4-CN)]W[dHyp]N[Phe(4-COOH)][Trp(7-CN)][αMeS][Phe(4-CONH2)][Phe(4-CONH2)][Sar][Trp(βS-Me,7-OMe)][X1])), for which the figures for the Kd (in test [1]; in test [2]; at human TNFR2 ECD protein) were 0.15 nM, 0.05 nM and > 1000 nM, respectively.

As for `CCCC[C@@H]1NC(=O)[C@@H]2CC[C@@H](C2)NC(=O)[C@H]([C@@H](C)c2c[nH]c3c(OC)cccc23)NC(=O)CN(C)C(=O)[C@H](Cc2ccc(O)cc2)NC(=O)[C@H](Cc2ccc(OCC(=O)O)cc2)NC(=O)[C@](C)(CO)NC(=O)[C@H](Cc2c[nH]c3c(Cl)cccc23)NC(=O)[C@H](Cc2ccncc2)NC(=O)[C@H](CC(N)=O)NC(=O)[C@H](CCC(=O)O)N(C)C(=O)[C@H](Cc2c[nH]c3ccccc23)NC(=O)[C@@H]2CNCCN2C(=O)[C@H](Cc2ccncc2)NC1=O` [SEQ ID NO. 80] (cyclo([4Pal][Trp(7-Cl)][αMeS]Y(Carboxymethyl)Y[Sar][Trp(βS-Me,7-OMe)][X1][Nle][4Pal][Pip(4-aza)]W[NMeE]N)), the Kd in test [1] is 0.3 nM; in test [2] it was 0.33 nM; at human TNFR2 ECD protein, > 1000 nM.

On to `CCCC[C@@H]1NC(=O)[C@@H]2CC[C@@H](C2)NC(=O)[C@H]([C@@H](C)c2c[nH]c3c(OC)cccc23)NC(=O)CN(C)C(=O)[C@H](Cc2ccc(C(=O)O)cc2)NC(=O)[C@H](Cc2ccc(C(N)=O)cc2)NC(=O)[C@](C)(CO)NC(=O)[C@H](Cc2c[nH]c3c(Cl)cccc23)NC(=O)[C@H](Cc2ccncc2)NC(=O)[C@H](CC(N)=O)NC(=O)[C@H]2C[C@H](O)CN2C(=O)[C@H](Cc2c[nH]c3ccccc23)NC(=O)[C@@H]2CNCCN2C(=O)[C@H](Cc2ccncc2)NC1=O` [SEQ ID NO. 83] (cyclo([4Pal][Trp(7-Cl)][αMeS][Phe(4-CONH2)][Phe(4-COOH)][Sar][Trp(βS-Me,7-OMe)][X1][Nle][4Pal][Pip(4-aza)]W[dHyp]N)), for which the Kd in test [1] (displacement of biotinylated peptide SEQ ID NO. 1 from sTNFR1, 20 point titration, 5-parameter fit based on Morrison equation (tight binding), read-out: TR-FRET Kd^app) is 0.16 nM; in test [2] (biotinylated human TNFR1 ECD on streptavidin chip, from kon and koff, read-out: SPR hTNFR1 KD), 0.09 nM; at human TNFR2 ECD protein (biotinylated human TNFR2 ECD on streptavidin chip, read-out: SPR hTNFR2 KD), > 1000 nM.
